Measurements: ChEMBL document CHEMBL2434880, “Synthesis and assessment of catechol diether compounds as inhibitors of trypanosomal phosphodiesterase B1 (TbrPDEB1)” (Bioorg Med Chem Lett, 2013)

Molecular target: T1, Class 1 phosphodiesterase PDEB1 (Trypanosoma brucei) (UniProt Q8WQX9)
T1 sequence (whole entry): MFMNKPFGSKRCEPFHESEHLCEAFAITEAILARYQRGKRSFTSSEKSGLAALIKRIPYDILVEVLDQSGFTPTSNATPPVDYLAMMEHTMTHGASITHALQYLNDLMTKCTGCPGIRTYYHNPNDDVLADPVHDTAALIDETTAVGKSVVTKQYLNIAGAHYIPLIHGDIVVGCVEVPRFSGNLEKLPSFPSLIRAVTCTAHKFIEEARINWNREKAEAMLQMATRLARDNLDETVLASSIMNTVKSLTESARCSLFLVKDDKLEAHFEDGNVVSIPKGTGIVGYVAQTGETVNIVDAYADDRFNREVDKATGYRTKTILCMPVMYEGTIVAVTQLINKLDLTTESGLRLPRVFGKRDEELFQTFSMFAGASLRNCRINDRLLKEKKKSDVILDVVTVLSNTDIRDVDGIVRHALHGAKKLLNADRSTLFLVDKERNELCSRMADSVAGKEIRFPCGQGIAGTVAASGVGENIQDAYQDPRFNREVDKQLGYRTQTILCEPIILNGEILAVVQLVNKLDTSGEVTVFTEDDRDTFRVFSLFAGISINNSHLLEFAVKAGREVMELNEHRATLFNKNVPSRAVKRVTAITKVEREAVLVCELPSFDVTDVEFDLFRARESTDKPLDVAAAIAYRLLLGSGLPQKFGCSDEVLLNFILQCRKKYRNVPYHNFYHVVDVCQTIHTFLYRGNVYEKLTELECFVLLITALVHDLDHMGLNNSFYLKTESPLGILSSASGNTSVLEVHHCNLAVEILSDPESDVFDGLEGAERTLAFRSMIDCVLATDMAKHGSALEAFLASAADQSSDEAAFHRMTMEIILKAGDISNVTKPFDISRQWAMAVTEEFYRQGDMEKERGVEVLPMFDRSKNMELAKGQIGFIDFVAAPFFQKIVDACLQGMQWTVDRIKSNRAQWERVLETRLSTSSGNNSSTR
Assay: Inhibition of Trypanosoma brucei recombinant PDEB1 at 10 uM by spectrophotometric analysis relative to control

Structure (SMILES) | inhibition [%]
COc1ccc(-c2ccnc(NC3CCCC3)n2)cc1OCc1ccccc1 | 21.8
COc1ccc(-c2cccc3ncccc23)cc1OC1CCCC1 | 69.1
COc1ccc(-c2ccncc2)cc1OC1CCCC1 | 18.7
COc1ccc(-c2ccnc(NC3CCCCC3)n2)cc1OC1CCCC1 | 29.8
COc1ccc(-c2ccnc(NC3CCCCC3)n2)cc1OCc1ccccc1 | 23.2
COc1ccc(-c2ccnc(NC3CCCCCC3)n2)cc1OC1CCCC1 | 20.6
COc1ccc(-c2ccnc(NC3CCC3)n2)cc1OC1CCCC1 | 3.9
COc1ccc(-c2ccnc(NCc3ccccc3)n2)cc1OC1CCCC1 | 32.9
COc1ccc(-c2ccnc(NC3CCCCC3)c2)cc1OC1CCCC1 | 27.1
COc1ccc(-c2ccnc(NCc3ccccc3)n2)cc1OCc1ccccc1 | 18.5
COc1ccc(-c2ccnc(N(C)C)c2)cc1OCc1ccccc1 | 48
COc1ccc(-c2ccnc(N(C)C)n2)cc1OCc1ccccc1 | 14.5
COc1ccc(-c2ccnc(NC3CCCCC3)c2)cc1OCc1ccccc1 | 28.4
COc1ccc(-c2ccc(OC)c(OC3CCCC3)c2)cn1 | 7.6
COc1ccc(-c2ccnc(NCc3ccccc3)c2)cc1OCc1ccccc1 | 7.2
COc1ccc(-c2ccnc(N(C)C)n2)cc1OC1CCCC1 | 15.8
COc1ccc(-c2ccnc(N(C)C)c2)cc1OC1CCCC1 | 34
COc1ccc(-c2ccnc(NC3CCCC3)n2)cc1OC1CCCC1 | 12.7
COc1ccc(-c2ccnc(NC3CCC3)n2)cc1OCc1ccccc1 | 16.1
COc1ccc(-c2ccnc(NC3CCCCCC3)n2)cc1OCc1ccccc1 | 22.3

Tested on: Trypanosoma brucei brucei
Assay: Antitrypanosomal activity against Trypanosoma brucei brucei
Assay type: functional, organism-based

Structure (SMILES) | EC50 [nM]
COc1ccc(C2=NN(C3CCCCCC3)C(=O)[C@H]3CC=CC[C@@H]23)cc1OCCCCOc1ccc(-c2nn[nH]n2)cc1 | 80

Molecular target: Phosphodiesterase 4 (Homo sapiens, UniProt P27815+Q08499+Q07343+Q08493)
Assay: Inhibition of human PDE4
Assay type: protein assay

Structure (SMILES) | IC50 [nM]
COc1ccc(C2=NN(C3CCCCCC3)C(=O)[C@H]3CC=CC[C@@H]23)cc1OCCCCOc1ccc(-c2nn[nH]n2)cc1 | 0.6
COc1ccc(C2=NN(C3CCCC3)C(=O)[C@H]3CC=CC[C@@H]23)cc1OC1CCCC1 | 10

Tested on: not listed separately
Assay: Inhibition of Trypanosoma brucei PDEB2

Structure (SMILES) | IC50 [nM]
COc1ccc(C2=NN(C3CCCCCC3)C(=O)[C@H]3CC=CC[C@@H]23)cc1OCCCCOc1ccc(-c2nn[nH]n2)cc1 | 6
COc1ccc(C2=NN(C3CCCC3)C(=O)[C@H]3CC=CC[C@@H]23)cc1OC1CCCC1 | 544

Molecular target: T2, Class 1 phosphodiesterase PDEB1 (Trypanosoma brucei, UniProt Q8WQX9)
T2 sequence (Q8WQX9 whole entry): T1 sequence (whole entry)
Assay: Inhibition of Trypanosoma brucei PDEB1

Structure (SMILES) | IC50 [nM]
COc1ccc(C2=NN(C3CCCC3)C(=O)[C@H]3CC=CC[C@@H]23)cc1OC1CCCC1 | 278
